Source: patent US20240287147A1, “PD-L1 BINDING PEPTIDES AND PEPTIDE COMPLEXES AND METHODS OF USE THEREOF” (Fred Hutchinson Cancer Center, priority 2020, published 2024)

Test system: PC3 tumors
Settings: PC3, second cohort, T cells + 1 nmol or 0.1 nmol

## durvalumab
  effect on PC3 flank tumors: no effect
